Our source for the EC50 values is patent publication US20220125771A1, “S[…], ANALOGUES THEREOF, AND METHODS USING SAME” (priority 2019, published 2022).

Read-outs that look alike come from different tables or passages of the source.

The assay deals with HBsAg in HepG2.2.15 cells. The experiment in a line: HBsAg Assay: inhibition of HBsAg in HepG2.2.15 cells (CLIA immunoassay of supernatant). Type of assay: cell-based, hepatitis B virus. Conditions: supernatant collected at day 6 after exposure of compounds, final DMSO 0.5%. Here is the method:
Inhibition of HBsAg was determined in HepG2.2.15 cells. Cells were maintained in culture medium containing 10% fetal calf serum, […], Glutamine, penicillin/streptomycin. Cells were seeded in 96-well collagen-coated plate at a density of 30,000 cells/well. Serially diluted compounds were added to cells next day at the final DMSO concentration of 0.5%. Cells were incubated with compounds for 2-3 days, after which medium was removed. Fresh medium containing compounds was added to cells for additional 3-4 days. At day 6 after exposure of compounds, supernatant was collected, the HBsAg immunoassay (microplate-based chemiluminescence immunoassay kits, CLIA, Autobio Diagnosics Co., Zhengzhou, China, Catalog #CL0310-2) was used to determine the level of HBsAg according to manufactory instruction. Dose-response curves were generated and the EC50 value (effective concentrations that achieved 50% inhibitory effect) were determined using XLfit software. In addition, cells were seeded at a density of 5,000 cells/well for determination of cell viability in the presence and absence of compounds by using CellTiter-Glo reagent (Promega). Tables 1-3 show EC50 values obtained by the HBsAg assay for selected compounds.

Where [1] appears, read: Hepatitis B virus, HepG2.2.15, 144 h, read-out: sAg EC50, μM, HepG2.2.15 cells.
Setting [2] is: read-out: sAg EC50, HepG2.2.15 cells.

What is called EC50 is the concentration at which the effect is half-maximal. Regarding `CC(C)(C)C1Cc2c(cc(OC(F)F)c3c2CCCN3)-c2[nH]c(=O)c(C(=O)O)c(O)c21` (stereo not drawn) [Example 9, 6-(tert-Butyl)-12-(difluoromethoxy)-7-hydroxy-9-oxo-1,2,3,4,5,6,9,10-octahydroquinolino[7,8-f]quinoline-8-carboxylic Acid], the EC50 under setting [1] stood at 0.011 µM.
As for `CN1CCCc2c3c(cc(OC(F)F)c21)-c1[nH]c(=O)c(C(=O)O)cc1C(C(C)(C)C)C3` (single isomer, unassigned) [Example 33, 6-(tert-Butyl)-12-(difluoromethoxy)-1-methyl-9-oxo-1,2,3,4,5,6,9,10-octahydroquinolino[7,8-f]quinoline-8-carboxylic Acid], the concentration for a half-maximal effect (EC50) under setting [2] stood at 0.3 µM.
`CC(C)C1Cc2cc(C(=O)O)c(=O)[nH]c2-c2nc3c(OC(F)F)cccn3c21` (single isomer, unassigned) [Example 20, 11-(Difluoromethoxy)-6-isopropyl-2-oxo-1,2,5,6-tetrahydropyrido[2′,1′:2,3]imidazo[4,5-h]quinoline-3-carboxylic Acid]: the EC50 under setting [2] worked out at 0.099 µM.
As to `COc1cc2c(c3cccnc13)CC(C(C)(C)C)c1cc(C(=O)O)c(=O)[nH]c1-2` (single isomer, unassigned) [Example 36, 6-(tert-Butyl)-12-methoxy-9-oxo-5,6,9,10-tetrahydroquinolino[7,8-f]quinoline-8-carboxylic Acid], the EC50 under setting [2] is 5.2 µM.
Consider `COc1cccc2c1nc1n2CC(C(C)(C)C)c2cc(C(=O)O)c(=O)[nH]c2-1` (single isomer, unassigned) [Example 28, 5-(tert-Butyl)-11-methoxy-2-oxo-1,2,5,6-tetrahydrobenzo[4,5]imidazo[1,2-h][1,7]naphthyridine-3-carboxylic Acid], for which the EC50 under setting [2] stood at 0.093 µM.
`COc1cccc2c1nc1n2CC(C(C)(C)C)c2cc(C(=O)O)c(=O)[nH]c2-1` (single isomer, unassigned) [Example 27, 5-(tert-Butyl)-11-methoxy-2-oxo-1,2,5,6-tetrahydrobenzo[4,5]imidazo[1,2-h][1,7]naphthyridine-3-carboxylic Acid]: the 50% effective concentration (EC50) under setting [2] stood at 10 µM.
For `CN1CCCc2c3c(cc(OC(F)F)c21)-c1[nH]c(=O)c(C(=O)O)cc1C(C(C)(C)C)C3` (single isomer, unassigned) [Example 32, 6-(tert-Butyl)-12-(difluoromethoxy)-1-methyl-9-oxo-1,2,3,4,5,6,9,10-octahydroquinolino[7,8-f]quinoline-8-carboxylic Acid], under setting [2], the EC50 worked out at 0.002 µM.
Same read-out and setting: with `CC(C)(C)C1Cn2c(cc3c(OC(F)F)cccc32)-c2[nH]c(=O)c(C(=O)O)c(O)c21` (single isomer, unassigned) [Example 3, 5-(tert-Butyl)-11-(difluoromethoxy)-4-hydroxy-2-oxo-1,2,5,6-tetrahydroindolo[1,2-h][1,7]naphthyridine-3-carboxylic Acid] the figure was 0.005 µM; with `COc1ccn2c3c(nc2c1OC)-c1[nH]c(=O)c(C(=O)O)cc1C(C(C)(C)C)C3` (single isomer, unassigned) [Example 18, 5-(tert-Butyl)-10,11-dimethoxy-2-oxo-1,2,5,6-tetrahydropyrido[2′,1′:2,3]imidazo[4,5-h]quinoline-3-carboxylic Acid], 0.005 µM.
With `COCCCN1CCCc2c3c(cc(OC(F)F)c21)-c1[nH]c(=O)c(C(=O)O)cc1C(C(C)(C)C)C3` (stereo not drawn) [Example 30, 6-(tert-Butyl)-12-(difluoromethoxy)-1-(3-methoxypropyl)-9-oxo-1,2,3,4,5,6,9,10-octahydroquinolino[7,8-f]quinoline-8-carboxylic Acid], under setting [1], the half-maximal effective concentration (EC50) was found to be 0.2 µM.
For the molecule `COc1[nH]c2c(c(=O)c1C(=O)O)C(C(C)(C)C)Cc1c-2cc(OC(F)F)c2ncccc12` (stereo not drawn) [Example 47, 6-(tert-butyl)-12-(difluoromethoxy)-9-methoxy-7-oxo-5,6,7,10-tetrahydroquinolino[7,8-f]quinoline-8-carboxylic Acid], the EC50 under setting [1] amounted to 0.14 µM.
Regarding `COc1ccn2c3c(nc2c1OC)-c1[nH]c(=O)c(C(=O)O)cc1C(C(C)(C)C)C3` (single isomer, unassigned) [Example 19, 5-(tert-Butyl)-10,11-dimethoxy-2-oxo-1,2,5,6-tetrahydropyrido[2′,1′:2,3]imidazo[4,5-h]quinoline-3-carboxylic Acid], the EC50 under setting [2] came to 8 µM.
`COc1cccc2c1nc1n2CC(C(C)(C)C)c2c-1[nH]c(=O)c(C(=O)O)c2O` (stereo not drawn) [Example 24, 5-(tert-Butyl)-4-hydroxy-11-methoxy-2-oxo-1,2,5,6-tetrahydrobenzo[4,5]imidazo[1,2-h][1,7]naphthyridine-3-carboxylic Acid]: under setting [1], the EC50 was 0.02 µM.
With `COc1cccn2c3c(nc12)-c1[nH]c(=O)c(C(=O)O)cc1C(C(C)C)C3` (single isomer, unassigned) [Example 16, 5-Isopropyl-11-methoxy-2-oxo-1,2,5,6-tetrahydropyrido[2′,1′:2,3]imidazo[4,5-h]quinoline-3-carboxylic Acid], the EC50 under setting [2] is 0.048 µM.
With `COc1cccn2c3c(nc12)-c1[nH]c(=O)c(C(=O)O)cc1C(C(C)C)C3` (single isomer, unassigned) [Example 17, 5-Isopropyl-11-methoxy-2-oxo-1,2,5,6-tetrahydropyrido[2′,1′:2,3]imidazo[4,5-h]quinoline-3-carboxylic Acid], the EC50 under setting [2] amounted to 10 µM.
Consider `CCOc1cccc2c1cc1n2CC(C(C)(C)C)c2c-1[nH]c(=O)c(C(=O)O)c2O` (stereo not drawn) [Example 5, 5-(tert-Butyl)-11-ethoxy-4-hydroxy-2-oxo-1,2,5,6-tetrahydroindolo[1,2-h]naphthyridine-3-carboxylic Acid], for which the EC50 under setting [1] came to 0.13 µM.
On to `COc1ccn2c3c(nc2c1OC)-c1c(cc(C(=O)O)c(=O)n1C)C(C(C)(C)C)C3` (single isomer, unassigned) [Example 22, 5-(tert-Butyl)-10,11-dimethoxy-1-methyl-2-oxo-1,2,5,6-tetrahydropyrido[2′,1′:2,3]imidazo[4,5-h]quinoline-3-carboxylic Acid], for which, under setting [2], the EC50 is 0.11 µM.
For the molecule `COc1cccc2c1cc1n2CC(C(C)(C)C)c2c-1[nH]c(=O)c(C(=O)O)c2O` (stereo not drawn) [Example 4, 5-(tert-Butyl)-4-hydroxy-11-methoxy-2-oxo-1,2,5,6-tetrahydroindolo[1,2-h][1,7]naphthyridine-3-carboxylic Acid], under setting [1], the EC50 stood at 0.13 µM.
Turning to `CC(C)(C)C1Cn2c(cc3c(OC(F)F)cccc32)-c2[nH]c(=O)c(C(=O)O)c(O)c21` (stereo not drawn) [Example 1, 5-(tert-Butyl)-11-(difluoromethoxy)-4-hydroxy-2-oxo-1,2,5,6-tetrahydroindolo[1,2-h][1,7]naphthyridine-3-carboxylic Acid], the EC50 under setting [1] worked out at 0.009 µM.
Consider `CC(C)C1Cc2c(nc3c(OC(F)F)cccn23)-c2[nH]c(=O)c(C(=O)O)cc21` (single isomer, unassigned) [Example 13, 11-(Difluoromethoxy)-5-isopropyl-2-oxo-1,2,5,6-tetrahydropyrido[2′,1′:2,3]imidazo[4,5-h]quinoline-3-carboxylic Acid], for which, under setting [2], the EC50 worked out at 1.1 µM.
On to `CC(C)(C)C1Cc2c(nc3c(OC(F)F)cccn23)-c2[nH]c(=O)c(C(=O)O)c(O)c21` (single isomer, unassigned) [Example 8, 5-(tert-Butyl)-11-(difluoromethoxy)-4-hydroxy-2-oxo-1,2,5,6-tetrahydropyrido[2′,1′:2,3]imidazo[4,5-h]quinoline-3-carboxylic Acid], for which, under setting [2], the EC50 worked out at 0.22 µM.
`COc1nc2c(c3ccccc13)CC(C(C)(C)C)c1cc(C(=O)O)c(=O)n(C)c1-2` (stereo not drawn) [Example 43, 12-(tert-Butyl)-6-methoxy-4-methyl-3-oxo-3,4,11,12-tetrahydrobenzo[c][1,10]phenanthroline-2-carboxylic Acid]: the EC50 under setting [1] worked out at 0.023 µM.
In the case of `COc1cc2c(c3cccnc13)CC(C(C)(C)C)c1cc(C(=O)O)c(=O)[nH]c1-2` (single isomer, unassigned) [Example 35, 6-(tert-Butyl)-12-methoxy-9-oxo-5,6,9,10-tetrahydroquinolino[7,8-f]quinoline-8-carboxylic Acid], the EC50 under setting [2] worked out at 0.027 µM.
On to `CC(=O)N1CCCc2c3c(cc(OC(F)F)c21)-c1[nH]c(=O)c(C(=O)O)cc1C(C(C)(C)C)C3` (stereo not drawn) [Example 31, 1-Acetyl-6-(tert-butyl)-12-(difluoromethoxy)-9-oxo-1,2,3,4,5,6,9,10-octahydroquinolino[7,8-f]quinoline-8-carboxylic Acid], for which the EC50 under setting [1] was determined as 0.05 µM.
For the molecule `COc1c(C(=O)O)c(=O)c2c(n1C)-c1cc(OC(F)F)c3ncccc3c1CC2C(C)(C)C` (stereo not drawn) [Example 46, 6-(tert-Butyl)-12-(difluoromethoxy)-9-methoxy-10-methyl-7-oxo-5,6,7,10-tetrahydroquinolino[7,8-f]quinoline-8-carboxylic Acid], the half-maximal effective concentration (EC50) under setting [1] came to 0.3 µM.
In the case of `CC(C)C1Cc2cc(C(=O)O)c(=O)[nH]c2-c2nc3c(OC(F)F)cccn3c21` (single isomer, unassigned) [Example 21, 11-(Difluoromethoxy)-6-isopropyl-2-oxo-1,2,5,6-tetrahydropyrido[2′,1′:2,3]imidazo[4,5-h]quinoline-3-carboxylic Acid], the EC50 under setting [2] amounted to 6 µM.
Still for that read-out and setting: with `Cn1c2c(cc(C(=O)O)c1=O)C(C(C)(C)C)Cc1c-2cc(OC(F)F)c2ncccc12` (single isomer, unassigned) [Example 40, 6-(tert-Butyl)-12-(difluoromethoxy)-10-methyl-9-oxo-5,6,9,10-tetrahydroquinolino[7,8-f]quinoline-8-carboxylic Acid] the figure was 0.2 µM.
